Assay: Bioavailability test of water-soluble curcumin mixture in rats (plasma, HPLC-MS/MS)
Type: in vivo
Conditions: intragastric administration, 200 mg·kg^−1 calculated as curcumin, plasma 0.167-12 h
From the text: After experimental testing in rats, the bioavailability test method of water-soluble curcumin mixture was verified according to the “Guidelines for Validation of 9012 Biological Sample Quantitative Analysis Method” in the fourth appendix of the Pharmacopoeia of the People's Republic of China (2015 Edition). Specific steps are as follows:
24 Healthy SD (spontaneous mutant Danforth's short tail) rats were randomly divided into 4 groups (6 in each group) after being adaptively reared for one week;
In each group, about 0.3 mL of blood was collected from the orbit at 0.167, 0.5, 1, 1.5, 2, 3, 5, 8 and 12 hours after administration, and centrifuged at 4000 rpm for 10 minutes. The plasma was stored at −20° C. for later use.
Separating 100 μL of plasma, adding 0.3 mL of ethyl acetate, mixing for 2 min, centrifuging at 4000 rpm for 10 min, and separating the supernatant; adding 0.3 mL of ethyl acetate to the precipitate, mixing for 2 min, and centrifuging at 4000 rpm for 10 min, vacuum drying at 40° C. Adding 100 μL of methanol to the residue, wetting the centrifuge tube, mixing for 2 min, filtering with 0.22 μm microporous membrane, analyzing and testing.
HPLC-MS/MS with emodin as the internal standard was used for detection, and DAS2.0 software was used to calculate the pharmacokinetic parameters and compare the relative bioavailability.

COc1cc(/C=C/C(=O)CC(=O)/C=C/c2ccc(O)c(OC)c2)ccc1O [curcumin]
AUC (012 h) (SD rats): 140.36 ng·h/mL | AUC(0-t) (SD, rat, plasma, po, 200 mg/kg, read-out: AUC (012 h)): 108 ng·h/mL

Reference: patent publication US11642316B2, “Water-soluble curcumin mixture with high bioavailability and preparation method and application thereof” (HENAN ZHONGDA HENGYUAN BIOTECHNOLOGY STOCK CO., LTD., priority 2021, dated 2023)
